Test results: BindingDB's records for doi:10.1021/acs.jmedchem.7b00441 (University of Bonn, 2017)
pEC50: −log10 of the molar value.

Legend:
[1] = Inhibition of human GFP-fused ABCG2 expressed in MDCK2 cells assessed as potentiation of mitoxantrone induced cytotoxicity by measuring cell viability after 72 hrs by MTT assay
[2] = Inhibition of human GFP-fused ABCG2 expressed in MDCK2 cells assessed as potentiation of SN-38 induced cytotoxicity by measuring cell viability after 72 hrs by MTT assay

Row | SMILES | pEC50 [1] | pEC50 [2]
1 | Cc1cc(Nc2ccc(O)c([N+](=O)[O-])c2)nc(-c2ccccc2)n1 | 7.66 | 7.21
2 | N#Cc1cccc(Nc2nc(-c3cccnc3)nc3ccccc23)c1 |  | 7.07
3 | O=[N+]([O-])c1ccc(Nc2nc(-c3cccnc3)nc3ccccc23)cc1 | 7.89 | 7.68
